Measured values taken from patent US20200215169A1, “ANTIBACTERIAL METHODS AND RELATED KITS” (THE HENRY M. JACKSON FOUNDATION FOR THE ADVANCEMENT OF …, priority 2017, published 2020).
“Also recorded” adds a separate entry of the source.

What was measured:
[1] = system: E. faecalis OG1RF and Δeep biofilms; assay: Biofilm biomass quantified by safranin staining, OD450 nm, 96-well polystyrene plates; assay type: cell-based, Enterococcus faecalis
Description: Biofilms of the two strains were grown overnight in tryptic soy broth without added glucose in the wells of 96-well polystyrene plates at 37° C. The liquid cultures were removed from the plate, and the material remaining in the wells (i.e., the biomass) was washed five times with sterile water.
Both OG1RF and Δeep were streaked on Brain Heart Infusion (BHI) agar plates and incubated at room temperature for two days. Three colonies from each strain were inoculated in BHI broth and incubated overnight at 37° C. 96-well microtiter plate biofilm assays were performed using the overnight cultures diluted in Tryptic Soy Broth (TSB). Biofilm plates were incubated overnight at 37° C. in a moist environment. The microtiter plate was washed with sterile water. […] After incubation, the microtiter plate was washed again with sterile water and left to dry until water was absent in the wells. The plate was stained with safranin, washed again with sterile water, and then read on a plate reader to determine the amount of biofilm in the wells.

[2] = system: E. faecalis OG1RF and Δeep biofilms; assay: Viable cells (CFU) recovered from biofilm biomass after treatment; details: for decrease in viable biofilm cells: three-hour exposure
Description: (§1) Cells were scraped up from the wells of the 96-well plate following the post-treatment washing step, as described above. The scraped up cells were serially diluted and plated to assess the number of colony forming units (CFU) recovered per ml (CFU/ml).
The bacteria were then diluted (10^0-10^−7), and plated on Brain Heart Infusion (BHI) plates. The plates were incubated overnight at 37° C.
These solutions were diluted by serial 10-fold dilutions, and then aliquots of each dilution were plated on BHI agar plates to enumerate the number of viable bacteria present in each solution. In addition, the biofilms in the plate were washed, and then two wells of OG1RF biofilms and two wells of Δeep biofilms were removed by scraping manually with a pipette tip and resuspended in potassium phosphate buffered saline. These dislodged biofilm cell solutions were also diluted by serial 10-fold dilutions, and then aliquots of each dilution were plated on BHI agar plates to enumerate the viable bacteria present in each sample. Finally, the remainder of the biofilm wells were allowed to dry for several hours, and then the biomass in each well was stained with safranin. Excess safranin was washed away, and the plates were dried again. Biofilm biomass was quantified by reading the optical density of safranin-stained wells at OD450 nm.

[3] = system: E. faecalis OG1RF biofilms; details: cited from earlier work
[4] = system: E. faecalis OG1RF; details: cited from earlier work
[5] = system: E. faecalis strains DS16, FA2-2, JH2-2, VA1128, V583 and 39-5 biofilms; assay: Biofilm biomass by safranin staining, laboratory strains and clinical isolates; assay type: cell-based, Enterococcus faecalis; details: strains DS16, VA1128 and V583, methods of Example 1
Description: Biofilms of the two strains were grown overnight in tryptic soy broth without added glucose in the wells of 96-well polystyrene plates at 37° C. The liquid cultures were removed from the plate, and the material remaining in the wells (i.e., the biomass) was washed five times with sterile water. […] Following incubation, the lysozyme or buffer solutions were removed, and the wells were washed again as above.
E. faecalis strains DS16, FA2-2, JH2-2, and 39-5 are strains that have been used for laboratory experiments for many years, and E. faecalis strain V583 is a vancomycin-resistant strain that has become the prototype lab strain for studies of vancomycin-resistant E. faecalis. E. faecalis strain VA1128 is a clinical isolate.

[6] = system: E. faecalis OG1RF and Δeep biofilms; assay: Viable cells in the treatment solution (supernatant) removed from biofilms, dispersal check; assay type: cell-based, Enterococcus faecalis; details: 5 mg/ml hen egg white lysozyme, 3 h, 37° C., either strain
Description: To conduct this experiment, the number of viable cells that were present in the buffer or lysozyme solution that was removed from the biofilms following exposure was measured. If viable cells were dispersed from the biofilm following treatment, then one should be able to enumerate viable cells in the lysozyme solution removed from the treated wells.
In this experiment, biofilms of E. faecalis OG1RF and Δeep were grown in 96-well microtiter plates overnight. The biofilms were washed to remove non-adherent cells.

[7] = system: E. faecalis strains DS16, FA2-2, JH2-2, VA1128, V583 and 39-5 biofilms; assay: Viable cells (CFU) recovered from biofilms, laboratory strains and clinical isolates; assay type: cell-based, Enterococcus faecalis; details: all tested strains, methods of Example 1
Source text: as §1

[8] = system: planktonic E. faecalis OG1RF and Δeep cells; assay: Viability of planktonic logarithmic and stationary phase cells exposed to lysozyme; assay type: cell-based, Enterococcus faecalis; details: 2.5 mg/ml lysozyme, 6 hours
Description: Early logarithmic cultures were prepared by diluting overnight cultures 1:100 in BHI broth. To obtain stationary phase cells, BHI broth was inoculated with 3 individual colonies and cultivated for about 18 hours. […] Cultures to which sterile water was added served as controls. Cultures were incubated at 37° C. for 6 hours.

[9] = 128 μg/ml ampicillin in water, 3 h, OG1RF and Δeep

With “Human lysozyme: purified, recombinant human lysozyme available for purchase” the “increase in stained biomass” value ([1]; recombinant human lysozyme versus buffer) was “approximately 3.5 fold”, the “decrease in viable cells” value ([2]; OG1RF and Δeep, recombinant human lysozyme) was over 99.9% and the “reduction of viable cells recovered from biofilms” value ([2]; OG1RF, recombinant human lysozyme) was 3.2 log 10 CFU/ml. The “reduction of viable cells recovered from biofilms” value ([2]; Δeep, recombinant human lysozyme) was 4.0 log 10 CFU/ml.
In the case of `CC1(C)S[C@@H]2[C@H](NC(=O)[C@H](N)c3ccccc3)C(=O)N2[C@H]1C(=O)O` [ampicillin, reference compound], the “ampicillin concentration to which biofilms are resistant” value [3] is listed as over 128 µg/mL, the “change in biofilm biomass” value [1, 9] is listed as “no changes; also recorded: resistant to any effect” and the “change in biofilm cell viability” value [2, 9] is listed as “no changes; also recorded: resistant to any effect”. The “susceptibility in planktonic conditions” value [4] was “susceptible”.
With “lysozyme: hen egg white lysozyme (EC 3.2.1.17), enzyme that hydrolyzes beta-1,4-linkages of bacterial cell wall peptidoglycan” the “biofilm biomass after treatment” value [5] was “increased, to some extent”, the “increase in stained biomass among 0.156, 1.25 and 5 mg/ml” value ([1]; 1.25 mg/ml lysozyme) was “largest increase” and the “biofilm biomass (safranin staining) versus buffer” value ([1]; 5 mg/ml hen egg white lysozyme, 3 h, 37° C., OG1RF and Δeep) was “increased biofilm biomass of equal magnitude for both strains; also recorded: increased equally for both strains; also recorded: greater than the staining in untreated wells”. For the same molecule, the “stained biomass at 6 hours compared to 3 hours” value ([1]; 5 mg/ml lysozyme, 37° C.) was “increased slightly”, the “viable cells recovered from biofilm at 6 and 24 hours compared to 3 hours” value ([2]; 5 mg/ml lysozyme, 37° C.) was “dropped slightly” and the “drop in viable cells recovered from biofilm” value ([2]; OG1RF, 5 mg/ml lysozyme, 3 h, difference in means of 3 biological replicates) was 2.8 log 10 CFU/ml. The “decrease in viable biofilm cells” value ([2]; OG1RF, 5 mg/ml lysozyme) was 99.8%, the “viability of biofilm cells versus untreated or buffer (in words)” value ([2]; lysozyme-treated OG1RF and Δeep biofilms) was “fewer living cells than the untreated strains; also recorded: displayed killing; also recorded: decreased the number of viable biofilm cells” and the “decrease in viable biofilm cells” value ([2]; Δeep, 5 mg/ml lysozyme) was 99.9%. For the same molecule, the “viable cells in lysozyme supernatant” value [6] was “no viable cells above the limit of detection”, the “viable cells recovered from biofilms” value [7] was “reduced the number of viable cells” and the “decrease in viable cells” value ([8]; OG1RF and Δeep, stationary phase) was “about 1.5 log 10 CFU/ml”. The “decrease in viable cells” value ([8]; OG1RF, logarithmic growth) was “no decrease”.
